Experimental data reported in US9029414B2, “Triterpenoid compounds and methods of use thereof” (Biotechnology Research Corporation, priority 2008, dated 2015).

Columns and labels:
[1] = target: T1, EP4 receptor (Homo sapiens, UniProt P35408); experiment: Radioligand competition binding assay, EP4; details: EP4, target PGE2; compound at 10 μM in duplicate; read-out: % inhibition of control specific binding
Procedure: (§1) DA001 was further evaluated against 32 receptor binding assays. Radioligand competition assays were conducted whereby DA001 was tested at one concentration (10 uM) in duplicate. […] It could compete with the radioligand [^3H] PGE2 binding at the EP1 and EP4 receptors, and weakly competed with the EP2 and FP receptors.
(§2) To determine the targets of DA compounds, the compound was assessed in binding assays for the family of prostanoid receptors. Both compounds were tested at a single concentration (10 μM) in duplicate. DA001 and DA021 inhibit the ligand binding of prostaglandin E2 receptors EP1, EP2 and EP4 and moderately to prostaglandin (PGF) to its receptor (FP), but not prostaglandin I (PGI2), thromoboxane A and prostaglandin D2 to their receptors.

[2] = tested on: cortical neurons; experiment: Cortical neuron survival assay against kainate excitotoxicity (LDH); format: cell-based, Sprague-Dawley rats; details: kainate 5-500 μM 20 min; for protection from kainate-induced excitotoxicity (LDH release): 30 μM 24 hrs
Procedure: Cortical neurons were prepared from embryonic day 18 Sprague-Dawley rats. After the cortices had been removed from the brain, isolated cells were plated onto Poly d-Lysine (PDL) (P0899, Sigma)-coated 48 well plates (150687, NUNC) at a density of 2×10^5 cell per well using Neurobasal Medium (NB) (21103-049, Gibco) with B27 supplement (17504-044, Gibco), penicillin/streptomycin (15140, Gibco) and 1 mM L-glutamine (25030, Gibco). The cell culture was incubated at 37° C. in a humidified atmosphere of 5% CO2 in air. Medium was changed to growth medium (Neurobasal Medium with penicillin/streptomycin and B27 supplement) after 3 hours. Half medium was changed with growth medium every 2-3 days to maintain the cells until day 10 in vitro (DIV 10). Serial dilutions of samples were prepared in growth medium and DMSO was used as vehicle control. For pre-treating assay, half of the medium was removed from wells, and equal amount of diluted samples were replaced. Cells were then incubated for 2 hours at 37° C. in a humidified atmosphere of 5% CO2 in air. Culture was subsequently rinsed with Locke's solution (5 mM potassium chloride, 128 mM sodium chloride, 2.7 mM calcium chloride, 1 mM di-sodium hydrogen orthophosphate, 5 mM HEPES and 10 mM Glucose in Milli-Q water), then incubated with Locke's solution in the presence of glycine (10 μM) for 15 minutes before […] treatment. Kainate dissolved in Locke's plus glycine solution was then substituted and incubated for 20 minutes at 37° C. […] Afterwards, cells were incubated in growth medium for 18-24 hours and detected with Cytotoxicity Detection Kit (1644793, Roche). […]
FIG. 5 illustrates that DA001 protects neurons against differing concentrations of kainate. […] LDH release into the medium was then measured.
Cortical neurons were treated with DA021 or DA034 and subsequently subjected to varying concentrations of kainate. […] LDH release into the medium was then measured.

[3] = target: T2, EP1 receptor (Homo sapiens, UniProt P34995); experiment: Cellular receptor functional assay (cAMP), EP1; format: cell-based; parameters: expressed in transfected cells; host or cells: CHO cells; details: for Antagonist effect, cAMP measurement: in presence of PGE2
T2 sequence (P34995 1-402): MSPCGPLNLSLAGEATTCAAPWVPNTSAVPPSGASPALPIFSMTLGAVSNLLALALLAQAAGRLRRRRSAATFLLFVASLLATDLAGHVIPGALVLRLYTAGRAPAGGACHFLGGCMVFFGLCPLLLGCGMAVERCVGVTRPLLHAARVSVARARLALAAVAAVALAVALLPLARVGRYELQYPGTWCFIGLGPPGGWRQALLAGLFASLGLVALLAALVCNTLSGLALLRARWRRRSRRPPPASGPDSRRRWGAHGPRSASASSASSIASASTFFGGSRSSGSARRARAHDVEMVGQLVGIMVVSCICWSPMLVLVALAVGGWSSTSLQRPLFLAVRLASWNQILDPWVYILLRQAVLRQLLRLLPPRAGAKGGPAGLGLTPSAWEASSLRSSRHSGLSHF
Procedure: (§3) To determine whether the inhibitory effect of DA001 on the ligand binding to EP receptors results from agonist or antagonist activity, DA001 was evaluated at a single concentration (10 μM) on cellular-specific receptor functional assays. Upon ligand binding, the EP receptors are activated which leads to an increase in intracellular cyclic AMP.
(§4) DA001 (10 μM) was subjected to ligand binding assay with the human EP1 or EP4 receptor over-expressing CHO cells. Results are expressed as a percent of control specific agonist response [100-(measured specific response/control specific agonist response)×100] obtained in the presence of DA001.
(§5) DA021 inhibits PGE2 ligand binding to EP1, EP2 and EP4 receptors. To determine whether the inhibitory effect is due to agonist or antagonist activity, DA021 was evaluated and compared at 1 concentration (30 uM) in cellular assays assessing receptor function. Upon ligand binding, the EP receptors are activated which leads to an increase in intracellular cyclic AMP.

[4] = target: T1, EP4 receptor; experiment: Cellular receptor functional assay (cAMP), EP4; format: cell-based; parameters: expressed in transfected cells; host or cells: CHO cells; details: for Antagonist effect, cAMP measurement: in presence of PGE2
Procedure: FIG. 13. […] A: Cellular functional assay for EP2; B: Cellular functional assay for […].
as §3, §4
DA001 was evaluated at 6 concentrations in cellular assays assessing receptor function. Upon ligand binding, the EP2 and EP4 receptor is activated which leads to an increase in intracellular cyclic AMP.
as §5

[5] = target: T2, EP1 receptor; experiment: Radioligand competition binding assay, EP1; details: EP1, target PGE2; compound at 10 μM in duplicate; read-out: % inhibition of control specific binding
Procedure: as §1, §2

[6] = target: FP receptor (Homo sapiens, UniProt P43088); experiment: Radioligand competition binding assay, FP; details: target PGF, compound at 10 μM in duplicate, read-out: % inhibition of control specific binding
Procedure: as §1, §2

T1 sequence (P35408 whole entry): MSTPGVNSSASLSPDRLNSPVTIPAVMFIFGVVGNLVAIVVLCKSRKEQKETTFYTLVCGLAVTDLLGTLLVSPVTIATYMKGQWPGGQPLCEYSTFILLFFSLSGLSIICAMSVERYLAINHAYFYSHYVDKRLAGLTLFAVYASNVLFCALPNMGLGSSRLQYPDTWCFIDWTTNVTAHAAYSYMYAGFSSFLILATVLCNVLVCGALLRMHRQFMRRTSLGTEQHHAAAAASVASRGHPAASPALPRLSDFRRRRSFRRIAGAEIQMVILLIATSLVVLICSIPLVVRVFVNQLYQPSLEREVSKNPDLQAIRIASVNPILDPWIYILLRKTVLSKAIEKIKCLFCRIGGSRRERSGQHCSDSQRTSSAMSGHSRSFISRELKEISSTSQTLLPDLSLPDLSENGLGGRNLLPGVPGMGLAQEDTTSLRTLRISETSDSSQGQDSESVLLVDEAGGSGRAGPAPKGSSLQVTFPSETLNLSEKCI
FP receptor, sequence (P43088 whole entry): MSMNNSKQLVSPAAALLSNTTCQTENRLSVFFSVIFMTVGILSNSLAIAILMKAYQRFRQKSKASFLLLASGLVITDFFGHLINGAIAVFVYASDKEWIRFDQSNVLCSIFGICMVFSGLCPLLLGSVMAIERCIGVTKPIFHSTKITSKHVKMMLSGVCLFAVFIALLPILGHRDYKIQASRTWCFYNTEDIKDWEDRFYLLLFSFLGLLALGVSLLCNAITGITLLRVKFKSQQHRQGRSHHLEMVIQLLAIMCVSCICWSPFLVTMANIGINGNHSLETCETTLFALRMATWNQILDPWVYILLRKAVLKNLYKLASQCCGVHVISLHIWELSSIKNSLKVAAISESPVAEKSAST

Row | Compound | inhibition at 10 µM [1] [%] | cell death (LDH release) vs DMSO control ([2]; 40 μM 24 hrs, at high concentrations of kainate) | Antagonist effect, cAMP measurement ([3]; 10 μM) [%] | Agonist effect, cAMP measurement ([3]; 10 μM, percent of control specific agonist response) [%] | Agonist effect, cAMP measurement ([4]; EP4 receptor, 10 μM) [%] | Antagonist effect, cAMP measurement ([4]; EP4 receptor, 10 μM) [%] | IC50 ([4]; inhibition of PGE2-induced cAMP increase, 6 concentrations, read-out: IC50, antagonist effect) [µM] | inhibition at 10 µM [5] [%] | inhibition at 10 µM [6] [%] | protection from kainate-induced excitotoxicity (LDH release) [2] | Agonist effect, cAMP measurement ([3]; 30 uM) | Antagonist effect, cAMP measurement ([3]; 30 uM) | Antagonist effect, cAMP measurement ([4]; EP4 receptor, 30 uM)
1 | C=C(C)[C@@H]1CC[C@]2(C(=O)O)CC[C@]3(C)C(CC[C@@H]4[C@@]5(C)CC[C@H](O[C@@H]6OC[C@H](O)[C@H](O)[C@H]6O[C@@H]6O[C@@H](C)[C@H](O)[C@@H](O)[C@H]6O)[C@@](C)(CO)[C@@H]5CC[C@]43C)[C@@H]12 (stereo partly drawn) [DA001, 3-O-[α-L-rhamnopyranosyl-(1→2)-α-L-arabinopyranosyl]-3,23-dihydroxy-20(29)-lupen-28-oic acid] | 49 | significant reduction in cell death | 38 | 8.1 | −11 | 41 | 20 | 52 | 27 |  |  |  | 
2 | C=C(C)[C@@H]1CC[C@]2(/C=N/O)CC[C@]3(C)C(CCC4[C@@]5(C)CCC(=O)[C@@](C)(CO)[C@@H]5CC[C@]43C)C12 (some centres unmarked) [DA021] | 36 |  |  |  |  |  |  | 31 | 52 | protect neurons against differing concentrations of Kainate | 9 | 87 | 18
3 | CC(=O)OC[C@]12CC[C@@H](C3(C)CO3)C1C1CCC3[C@@]4(C)CC[C@H](O)[C@@](C)(CO)[C@@H]4CC[C@@]3(C)[C@]1(C)CC2 (some centres unmarked) [DA034] |  |  |  |  |  |  |  |  |  | protect neurons against differing concentrations of Kainate |  |  | 
